{
  "source": "patent US12409187B2",
  "about": "“PH regulating hydrogels that neutralize cancer cell environment acidosis and increase chemotherapy efficacy” (Brown University, priority 2021, dated 2025)",
  "type_in_all_cases": "cell-based, human",
  "key": {"[1]": {"tested_on": "MDA-MB-231 breast cancer cells", "test": "pH-dependent doxorubicin efficacy on cell proliferation", "settings": "0.25 μM doxorubicin, 5-day treatment"}, "[2]": {"tested_on": "MDA-MB-231 breast cancer cell line", "test": "Cell proliferation assay (image confluency, manual cell count)", "settings": "1 μM doxorubicin", "description": "Cell viability. Incubated MDA-MB-231 cells were passaged from a confluent T-flask into a 12-well culture plate, and the treatment hydrogels were added. For the viability study, the effect of modified PEG hydrogels bicarbonate concentrations of 200, 400, 600, and 800 mM was analyzed along with the control group with no treatment (bicarbonate), and a vehicle control of PEG with no bicarbonate. The cells were imaged every twenty-four hours under Nikon TS 100 inverted light microscope attached with Excelis HD camera and processed using an ImageJ image processing macro (performed by Gavin Mays) to estimate cell confluency from the imaged area coverage. At the end of day 5, the number of live and dead cells were estimated by Trypan staining and cell counting using a hemocytometer. Percentage viability was calculated from the number of live cells as a fraction of total cells.\nCell proliferation assay. MDA-MB-231 breast cancer cell line. Cells given pH, hydrogel, sodium bicarbonate, and doxorubicin treatment. At twenty-four hours, cell confluency is observed and recorded via image processing. At Day 6, cell counting was performed using a hemocytometer. All assays increased in confluency. […] Assays without hydrogels consistent with confluency analysis. Assays with any hydrogel have low manual cell counts."}, "MDA-MB-231 cells": {"tested_on": "MDA-MB-231 cells", "test": "MTT assay (metabolic activity), Example 2", "settings": "1 μM doxorubicin", "description": "MTT assay. Measures metabolic activity. Cells reduce membrane permeable salt MTT (yellow) to formazan crystals (purple). Incubate for three days with treatment. Incubate for four hours with MTT. Add solubilization solution. Incubate for twelve hours. Measure absorbance of every well at OD570 nm-OD650 nm. See Riss et al., The Assay Guidance Manual (Eli Lilly & Company and the National Center for Advancing Translational Sciences. Bethesda, MD, USA, 2016). Hydrogels added to 7.4 pH with no drug had decreased metabolic activity. Hydrogels added to 6.5 pH with drug had decreased metabolic activity. Base-releasing hydrogel reduced cell proliferation, migration, and metabolic activity at an alkaline pH. Base-releasing hydrogel improved doxorubicin efficacy against cell proliferation, migration, and metabolic activity at an alkaline pH. Neutral-pH-adapted cells prefer neutral pH.\nThe metabolism of cancer cells can be measured by the activity of the mitochondrial reductase enzyme. […] The metabolic activity of the cells in culture can be measured by this conversion of MTT to formazan crystals. The absorbance can then be recorded at OD570 nm and OD650 nm to quantify the formazan produced by the cells through the mitochondrial reductase conversion from MTT. […] The absorbance is measured spectrophotometrically via a plate reader."}},
  "data": [
    {"compound": "COc1cccc2c1C(=O)c1c(O)c3c(c(O)c1C2=O)C[C@@](O)(C(=O)CO)C[C@@H]3O[C@H]1C[C@H](N)[C@H](O)[C@H](C)O1", "note": "[doxorubicin]", "values": [
      {"measurement": "efficacy at preventing cell proliferation", "setting": "[1]; pH 6.5", "value": 40, "unit": "%"},
      {"measurement": "effectiveness at preventing cell proliferation", "setting": "[1]; pH 7.4", "value": "approximately 95%"},
      {"measurement": "change of cell proliferation over the six-day trial period", "setting": "[2]", "value": "decrease"},
      {"measurement": "metabolic activity versus assays without doxorubicin", "setting": "MDA-MB-231 cells", "value": "statistically significantly less metabolic activity"}
    ]}
  ]
}
